Measured values reported in paper PMC8041370, “Limonoids from Guarea guidonia and Cedrela odorata: Heat Shock Protein 90 (Hsp90) Modulator Properties of Chisomicine D” (Journal of Natural Products, 2021).
Where two headings read alike, the source gives them in different places. One block for each compound: values may come before it.

Legend:
Hsp90α [1] = target: T1, Hsp90α (Homo sapiens, UniProt P07900); experiment: Surface plasmon resonance binding to immobilized Hsp90α; parameters: purchased Stress-gen Bioreagents Corporation, Victoria, Canada SPP-776; conditions: SPR, 25 °C, mean ± standard deviation (n = 3)
Method: 1 and 4 μM), and, for each sample, a complete binding study was carried out in triplicate. The experiments were performed at 25 °C, using a flow rate of 50 μL/min, with 60 s monitoring of association and 300 s monitoring of dissociation. Changes in mass, due to the binding response, were recorded as resonance units (RU). To obtain the dissociation constant (KD), these responses were fit to a 1:1 Langmuir binding model by nonlinear regression, using the BiaEvaluation sofware program (GE Healthcare). Simple interactions were suitably fitted to a single-site bimolecular interaction model (A + B = AB), yielding a single KD.

[2] = system: U937 (human myeloid leukemia) cell line; experiment: MTT cell viability, U937; assay type: cell-based; conditions: U-937, 48 h
Method: (§1) HeLa (cervical carcinoma) and U937 (pro-monocytic, human myeloid leukemia) cell lines were purchased from the American Type Cell Culture (ATCC) (Rockville, MD, USA). HeLa cells were maintained in DMEM, and U937 were cultured in RPMI 1640, both supplemented with 10% FBS, 100 mg/L streptomycin, and penicillin 100 IU/mL at 37 °C in a humidified atmosphere of 5% CO2. To ensure logarithmic growth, cells were subcultured every 2 days. Stock solutions of compound in DMSO were stored in the dark at 4 °C. Appropriate dilutions were prepared in culture medium immediately prior to use. […] PBMCs were isolated from buffy coats of healthy donors (kindly provided by the Blood Center of the Hospital of Battipaglia, Italy) by using standard Ficoll-Hypaque gradients. PBMCs were incubated with DMSO or compound 1 at 30 μM for 48 h. […] The number of viable cells was quantified by the MTT [3-(4,5-dimethylthiazol-2-yl)-2,5-diphenyl tetrazolium bromide] assay. Absorption at 550 nm for each well was assessed using Multiskan GO (Thermo Scientific). Half-maximal inhibitory concentration (IC50) values were calculated using GraphPad Prism 8. Experiments were performed in technical triplicates and repeated two times with similar results.

[3] = system: HeLa (epithelial carcinoma) cells; experiment: MTT cell viability, HeLa; assay type: cell-based; conditions: Homo sapiens, 48 h
Method: as §1

[4] = system: PBMC (nontumor human peripheral blood mononuclear cell line); experiment: Cytotoxicity on PBMC; assay type: cell-based; conditions: 30 μM, 48 h
Method: HeLa (cervical carcinoma) and U937 (pro-monocytic, human myeloid leukemia) cell lines were purchased from the American Type Cell Culture (ATCC) (Rockville, MD, USA). HeLa cells were maintained in DMEM, and U937 were cultured in RPMI 1640, both supplemented with 10% FBS, 100 mg/L streptomycin, and penicillin 100 IU/mL at 37 °C in a humidified atmosphere of 5% CO2. To ensure logarithmic growth, cells were subcultured every 2 days. Stock solutions of compound in DMSO were stored in the dark at 4 °C. Appropriate dilutions were prepared in culture medium immediately prior to use. […] PBMCs were isolated from buffy coats of healthy donors (kindly provided by the Blood Center of the Hospital of Battipaglia, Italy) by using standard Ficoll-Hypaque gradients. PBMCs were incubated with DMSO or compound 1 at 30 μM for 48 h.

U937 cells [5] = experiment: Cell cycle by propidium iodide flow cytometry and p-CDC2/CDC2 Western blot; assay type: cell-based, human
Method: (§2) U937 cells were preliminarily synchronized by serum starvation and then seeded in six-well plates at a cell density of 8 × 10^5 cell/well. After 24 h, they were incubated for 48 h in the presence of compound 1 at IC50 concentration (20 μm), with phenethyl isothiocyanate and DMSO as a positive and negative control, respectively. Apoptosis was evaluated by an annexin V–FITC/PI apoptosis detection kit (Dojindo EU GmbH, Munich, Germany), and the cell cycle was evaluated by propidium iodide (PI) staining of permeabilized cells, according to the available protocol, and flow cytometry (BD FACSCalibur flow cytometer, Becton Dickinson, San Jose, CA, USA). Data from 5000 events per sample were collected. The percentages of the elements in the hypodiploid region and in G1, S, and G2 phases of the cell cycle and apoptosis data were calculated using FlowJo (BD Biosciences). Experiments were performed in technical triplicates and repeated two times with similar results.
(§3) Whole cell lysates (U937) for immunoblot analysis were lysed with RIPA buffer (20 mM Tris-HCl pH 7.5, 150 mM NaCl, 1 mM EDTA, 1% NP-40, 1% sodium deoxycholate, 2.5 mM sodium pyrophosphate) supplemented with protease and phosphatase inhibitors. Protein concentration was determined by a Bradford solution for protein determination (Applichem) using BSA as a standard. Proteins were fractionated on SDS-PAGE, transferred into nitrocellulose membranes, and immunoblotted with the appropriate primary antibody. Signals were visualized with the appropriate horseradish peroxidase-conjugated secondary antibody and enhanced chemiluminescence (Amersham Biosciences-GE Healthcare, NY, USA). Densitometric analyses were carried out using the ImageJ software. Experiments were performed in duplicate.

U937 cells [6] = experiment: Apoptosis by annexin V-FITC/PI flow cytometry and caspase 3 Western blot; assay type: cell-based, human; conditions: U937, 20 μM
Method: as §2
Whole cell lysates (U937) for immunoblot analysis were lysed with RIPA buffer (20 mM Tris-HCl pH 7.5, 150 mM NaCl, 1 mM EDTA, 1% NP-40, 1% sodium deoxycholate, 2.5 mM sodium pyrophosphate) supplemented with protease and phosphatase inhibitors. Protein concentration was determined by a Bradford solution for protein determination (Applichem) using BSA as a standard. […]

Hsp90α [7] = target: T1, Hsp90α; experiment: Hsp90 ATPase activity; assay type: biochemical; conditions: 10 or 20 μM; data not shown
[8] = system: Hsp90α client protein levels in U937 cells; experiment: Western blot of Hsp90α, Hsp70 and Hsp90 client protein levels; assay type: cell-based, human
Method: as §3
Proteins extracted from U937 cells following a 24 h treatment with 20 μM solution of compound 1 and from untreated cells (control) were fractionated on SDS-PAGE. The bands corresponding to the intact and truncated forms of Hsp90 (apparent molecular weight 90 and 70 kDa, respectively) were excised and subjected to a classical in-gel tryptic digestion. The resulting peptide mixtures were analyzed in positive ion full scan and dependent scan MS mode on a Q-Exactive Orbitrap mass spectrometer coupled with a nanoUltimate UHPLC system (Thermo Fisher Scientific, Waltham, MA, USA). Peptide separation was performed on a capillary EASY-Spray PepMap column (0.075 mm × 50 mm, 2 μm, Thermo Fisher Scientific) using aqueous 0.1% formic acid (A) and CH3CN containing 0.1% formic acid (B) as mobile phases and a linear gradient from 3% to 40% of B in 45 min and a 300 nL/min flow rate. Mass spectra were acquired over an m/z range from 400 to 1300. Dependent scan data were preliminarily analyzed to confirm the presence of Hsp90 in the digested gel-bands. To this aim, MS and MS/MS data underwent Mascot software (v2.5, Matrix Science, Boston, MA, USA) analysis using the nonredundant data bank UniprotKB/Swiss-Prot (release 2020_03). Parameter sets were as follows: trypsin cleavage; carbamidomethylation of cysteine as a fixed modification and methionine oxidation as a variable modification; a maximum of two missed cleavages; false discovery rate (FDR), calculated by searching the decoy database, 0.05. The data analysis of protein was carried out using the gene ontology tool in the UniProt Knowledgebase (UniProtKB; http://www.uniprot.org). Based on the achieved results, full mass chromatograms were analyzed using Xcalibur software by generating extracted ion spectra specific for the Hsp90 tryptic peptides completely covering the protein amino acidic sequence.

[9] = U937, 20 μM, 48 h, PI staining, Figure 2B

SMILES: CC(=O)O[C@H]1C[C@@]2(C)[C@H](c3ccoc3)OC(=O)[C@H]3O[C@]32[C@@]2(C)[C@H]1[C@@]1(C)C=CC(=O)OC(C)(C)[C@@H]1C[C@H]2OC(C)=O [Compound 11, 11β-acetoxybacunyl acetate]
Kd (Hsp90α [1]): 25.3 ± 1.8 nM

SMILES: CC(=O)O[C@H]1C[C@@]2(C)[C@H](C3=CC(=O)O[C@@H]3O)OC(=O)[C@H]3O[C@]32[C@@]2(C)[C@H]1[C@@]1(C)C=CC(=O)OC(C)(C)[C@@H]1C[C@H]2OC(C)=O [Compound 5, 7-deoxo-7α,11β-diacetoxykihadanin A]
KD (Hsp90α [1]): no binding

SMILES: CC(=O)O[C@H]1C[C@@]2(C)[C@H](c3ccoc3)OC(=O)[C@H]3O[C@]32[C@@]2(C)[C@H]1[C@@]1(C)[C@@H](OC(C)=O)CC(=O)OC(C)(C)[C@@H]1C[C@H]2OC(C)=O [Compound 10, 7α,11β-diacetoxydihydronomilin]
KD (Hsp90α [1]): no binding

SMILES: CC(=O)O[C@H]1C[C@@]2(C)[C@H](C3=CC(=O)O[C@@H]3O)OC(=O)[C@H]3O[C@]32[C@@]2(C)[C@H]1[C@@]1(C)[C@@H](OC(C)=O)CC(=O)OC(C)(C)[C@@H]1C[C@H]2OC(C)=O [Compound 6, 1,2-dihydro-7-deoxo-1α,7α,11β-triacetoxykihadanin A]
KD (Hsp90α [1]): no binding

SMILES: CC(=O)O[C@H]1C[C@@]2(C)[C@H](c3ccoc3)OC(=O)[C@H]3O[C@]32[C@]2(C)[C@H](O)C[C@H]3C(C)(C)O[C@H]4CC(=O)OC[C@]43[C@@H]12 [Compound 8, 11β-acetoxylimonol]
Kd (Hsp90α [1]): 24.8 ± 2.3 nM

SMILES: C/C=C(\C)C(=O)O[C@@H]1/C=C\[C@]2(O)C3=CC(=O)O[C@@H](c4ccoc4)[C@]3(C)CC[C@]2(O)[C@]2(C)C(=O)C[C@@]1(C)[C@@H]2CC(=O)OC (relative stereo) [Compound 1, 8-hydro-(8S*,9S*)-dihydroxy-14,15-en-chisomicine A]
IC50 ([2]; read-out: IC50 growth inhibition U937): 20000 ± 3000 nM | IC50 [3]: > 50000 nM | cytotoxic activity on PBMC [4]: did not show any cytotoxic activity | G1 phase (U937 cells [5]; [9]): 53,1 | G2 phase (U937 cells [5]; [9]): 16,7 | S phase (U937 cells [5]; [9]): 12,3 | effect on cell cycle (U937 cells [5]; U937, 48 h (1 at 20 μM)): G2 phase cell cycle arrest | p-CDC2/CDC2 ratio (U937 cells [5]; U937, Western blot, 10 and 20 μM): increase | increase of late apoptosis compared to the negative control (U937 cells [6]; 48 h, annexin V/FITC): about 15% | pro-caspase 3 cleavage (U937 cells [6]; Western blot): induced the cleavage of pro-caspase 3 | inhibition of Hsp90 ATPase activity (Hsp90α [7]): did not affect its enzymatic efficiency | Hsp70 cellular levels ([8]; U937, 30 μM, 48 h): affected | ERK concentration ([8]; U937, 10, 20 and 30 μM, 48 h): no significant variation | Hsp90 amount ([8]; U937, 10, 20 and 30 μM, 48 h): down-regulated in a dose-dependent manner | p-ERK2 level ([8]; U937, 10, 20 and 30 μM, 48 h): strong depletion | Hsp90 cleavage ([8]; U937, 20 and 30 μM, 48 h): Hsp90 cleaved form, with an apparent molecular weight of 70 kDa, was observed | level of both isoforms of JNK ([8]; U937, 48 h, regardless of phosphorylation): significantly reduced | Kd (Hsp90α [1]): 18.2 ± 1.9 nM

SMILES: CC(=O)O[C@H]1C[C@@]2(C)[C@H](C3=C[C@@H](O)OC3=O)OC(=O)[C@H]3O[C@]32[C@@]2(C)[C@H]1[C@@]13COC(=O)C[C@@H]1OC(C)(C)[C@@H]3C[C@H]2OC(C)=O [Compound 9, 11β-acetoxycedrelosin B]
KD (Hsp90α [1]): low affinity | Kd (Hsp90α [1]): 183 ± 18.9 nM

Other lines, results leading:

Kd (Hsp90α [1]): 25.5 ± 3.4 nM
SMILES: COC(=O)[C@@H](OC(C)=O)[C@H]1C(C)(C)[C@H](O)[C@@H]2CC3=C4CC(=O)O[C@@H](c5ccoc5)[C@]4(C)CC[C@@H]3[C@@]1(C)C2=O [Compound 13, 6-O-acetylswietenolide]

KD (Hsp90α [1]): no binding
SMILES: COC(=O)C[C@H]1C(C)(C)[C@H](O)[C@@H]2CC3=C4CC(=O)O[C@@H](c5ccoc5)[C@]4(C)CC[C@@H]3[C@@]1(C)C2=O [Compound 14, proceranolide]

KD (Hsp90α [1]): no binding
SMILES: COC(=O)C[C@H]1C(C)(C)[C@H](OC(=O)C(O)C(C)C)[C@@H]2C=C3C4CC(=O)O[C@@H](c5ccoc5)[C@]4(C)CC[C@@H]3[C@@]1(C)C2=O (stereo partly drawn) [Compound 4, 3-(2′-hydroxyisovaleroyl)khasenegasin I]

KD (Hsp90α [1]): no binding
SMILES: C/C=C(\C)C(=O)O[C@@H]1/C=C\C2=C3CC(=O)O[C@@H](c4ccoc4)[C@]3(C)CC[C@]2(O)[C@]2(C)C(=O)C[C@@]1(C)[C@@H]2CC(=O)OC (relative stereo) [Compound 3, (9R*)-hydroxychisomicine A]

IC50 ([2]; positive control for HeLa and U937, cell line not specified, read-out: IC50 of positive control): 250 nM
SMILES: C[C@@H]1C[C@H]2O[C@@H]2/C=C\C=C\C(=O)Cc2c(Cl)c(O)cc(O)c2C(=O)O1 [radicicol, reference compound]

KD (Hsp90α [1]): no binding
SMILES: COC(=O)C[C@H](OC(C)=O)[C@]1(C)[C@H]2[C@@H](OC(C)=O)C[C@@]3(C)[C@H](c4ccoc4)OC(=O)[C@H]4O[C@]43[C@]2(C)[C@H](OC(C)=O)C[C@H]1C(C)(C)O [Compound 12, odoralide]

KD (Hsp90α [1]): no binding
SMILES: CC(=O)O[C@H]1CC(=O)OC(C)(C)[C@@H]2C[C@@H](OC(C)=O)[C@@]3(C)C4=CC[C@@H](C(O)(CO)CCO)[C@]4(C)CC[C@@H]3[C@@]12C (stereo partly drawn) [Compound 7, cedrelosin F]

KD (Hsp90α [1]): no binding
SMILES: C=C(C)C(=O)O[C@@H]1/C=C\[C@]2(O)C3=CC(=O)O[C@@H](c4ccoc4)[C@]3(C)CC[C@]2(O)[C@]2(C)C(=O)C[C@@]1(C)[C@@H]2CC(=O)OC [Compound 2, chisomicine E]
